Test results taken from publication PMC12030627, “Radioiodinated Bicyclic RGD Peptide Derivatives for Enhanced Tumor Accumulation” (Pharmaceuticals, 2025).

Tested on: A549 and U-87 MG co-implantation mice
Experiment: Biodistribution in A549 and U-87 MG co-implantation mice
Assay type: in vivo, BALB/c nu-nu mice
Description: Animal experiments were performed in compliance with institutional animal care regulations, with the study protocol approved by the Experimental Animal Committee of Osaka Medical and Pharmaceutical University (Approval Numbers: 21–76, 22–76, and 23–76). Four-week-old male BALB/c nu-nu mice (Japan SLC, Shizuoka, Japan) were housed under a 12 h light/12 h dark cycle with free access to food and water. Tumor-bearing mice were established by suspending U-87 MG cells (2 × 10^6 cells/mouse) in PBS(–) and subcutaneously injecting 100 μL of the suspension into the right hind leg. For co-implantation models, A549 cells (2 × 10^6 cells/mouse) were suspended in PBS(–) and inoculated (100 μL) into the left hind leg of the same mice already inoculated with U-87 MG cells. Mice with tumor size approximately 10 mm in diameter, 4–5 weeks after inoculation, were used for biodistribution studies. Animals in which either tumor was not viable were excluded from the experiment.
U-87 MG-bearing mice (n = 42, 8–9 weeks old; 22–27 g) were randomly assigned into groups and administered [^125I]bcRGDpal or [^125I]bcRGDiba via intravenous injection (37 kBq in 100 μL of PBS containing 0.1% Tween 80 (PBS-T80)). At 5 min, 30 min, 1 h, 2 h, 6 h, 12 h, or 24 h post-injection, the mice were euthanized (n = 3 per time point). The heart, kidneys, liver, brain, pancreas, spleen, lung, small intestine, large intestine, muscle, skin, stomach, bone, and tumors were excised. Each organ’s weight and radioactivity were measured by a NaI well-type scintillation counter, and the % ID/g was calculated. To investigate the correlation between integrin expression and radioactivity accumulation, biodistribution at 2 h after administration of [^125I]bcRGDpal or [^125I]bcRGDiba was assessed in A549 and U-87 MG co-implantation mice (n = 5) using the same procedure. Additionally, co-implantation mice were injected with [^125I]bcRGDdimer (37 kBq/100 μL PBS-T80) and euthanized at 30 min, 2 h, and 4 h post-injection (n = 4 per time point), and % ID/g values were calculated as described above. The minimum sample size needed for the biodistribution study in U-87 MG-bearing mice was calculated using G Power software version 3.1.9.7. The calculation was based on a two-tailed test, with an effect size of 3.9, a significance level (α) of 0.05, and a statistical power (1 − β) of 0.8. […] The minimum required sample size for the biodistribution study in A549 and U-87 MG co-implantation mice was also calculated to be four animals per group (effect size = 2.5, α = 0.05, 1 − β = 0.8). To guarantee objective results, the experiment was carried out in a blinded manner. Specifically, drug administration and radioactivity measurements were conducted by different investigators to eliminate potential bias.

[1] = 30 min after i.v. administration, U-87 MG and A549 co-implanted mice, mean ± SD, n = 4
[2] = 2 h after i.v. administration, U-87 MG and A549 co-implanted mice, mean ± SD, n = 4
[3] = 4 h after i.v. administration, U-87 MG and A549 co-implanted mice, mean ± SD, n = 4

## N=C(N)NCCC[C@@H]1NC(=O)[C@H]2CSCc3cc(cc(c3)CSC[C@H](C(N)=O)NC(=O)[C@H](CC(=O)O)NC(=O)CNC1=O)CSC[C@H](NC(=O)CNC(=O)[C@H](CO)NC(=O)c1ccc(NC(=O)CNC(=O)[C@H](CO)NC(=O)[C@@H]3CCCN3C(=O)[C@@H]3CCCN3C(=O)[C@@H]3CCCN3C(=O)CCc3cn(CC[C@H](NC(=O)CCNC(=O)c4cccc(I)c4)C(=O)N4CCC[C@H]4C(=O)N4CCC[C@H]4C(=O)N4CCC[C@H]4C(=O)N[C@@H](CO)C(=O)NCC(=O)Nc4ccc(C(=O)N[C@@H](CO)C(=O)NCC(=O)N[C@H]5CSCc6cc7cc(c6)CSC[C@@H](NC(=O)[C@H](CCC(N)=O)NC(=O)[C@@H]6CCCN6C(=O)[C@H](Cc6c[nH]cn6)NC5=O)C(=O)N[C@@H](CCCNC(=N)N)C(=O)NCC(=O)N[C@@H](CC(=O)O)C(=O)N[C@@H](C(N)=O)CSC7)cc4)nn3)cc1)C(=O)N[C@@H](Cc1c[nH]cn1)C(=O)N1CCC[C@H]1C(=O)N[C@@H](CCC(N)=O)C(=O)N2 [[^125I]bcRGDdimer]
[1]
  Radioactivity in thyroid: 0.0 ± 0.0 % injected dose
  U87/Muscle radioactivity ratio: 7.1 ± 1.8
[2]
  Radioactivity in brain: 0.0 ± 0.0 % injected dose per gram of tissue
  Radioactivity in thyroid: 0.0 ± 0.0 % injected dose
  U87/Blood radioactivity ratio: 22
  U87/Muscle radioactivity ratio: 13.9 ± 6.8
2 h post-administration
  Lung-to-blood radioactivity ratio: 3.7
2 h post-administration, co-implanted mice
  Accumulation ratio U87/A549: 5.4
[3]
  Radioactivity in brain: 0.0 ± 0.0 % injected dose per gram of tissue
  Radioactivity in thyroid: 0.0 ± 0.0 % injected dose
  U87/Muscle radioactivity ratio: 10.3 ± 2.5
